The values below come from the METLIN SMRT retention time set (Domingo-Almenara et al. 2019).

Structures are written as SMILES.

This data set is described as follows: gradient 5% acetonitrile 3 min, to 50% in 2 min, to 85% in 15 min, held 3 min, 100 µL/min. As to conditions: column: Zorbax Extend-C18 2.1 x 50 mm; eluents: water / acetonitrile, 0.1% formic acid. In short, it runs like this: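 In both positive and negative ionization mode, a quadrupole time-of-flight mass spectrometer coupled to HPLC analyzed pure standards run in mixtures of ~100 molecules. The Zorbax Extend-C18 column (2.1 × 50 mm, 1.8 μm) was operated at 100 μL/min with water and acetonitrile, each containing 0.1% formic acid. The dead volume was 40 μL and the dwell volume 900 μL. Retention time came from adduct peaks that were computationally picked and individually inspected by hand.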
In turn, `O=C(CN1CCN(Cc2ccccc2Cl)CC1)Nc1nc(-c2ccccc2)cs1` gave an RP-LC retention time of 747 s.

The compound `COc1cc(S(=O)(=O)NC2CC(C)(C)NC(C)(C)C2)ccc1F` displayed an RP-LC retention time of 553 s.

Regarding `CC1=C(C(=O)N(CC(=O)NCc2ccc(C)cc2)c2ccc(Cl)cc2)SCCO1`, the RP-LC retention time amounted to 1010 s.

As to `COc1cc(C(=O)N2CCC3(CC2)NC(=O)c2ccc(F)cc2N3C)cc(OC)c1OC`, the RP-LC retention time came out at 655 s.

`CCc1noc(NC(C)=O)c1-c1ccc(OC)c(S(=O)(=O)NC2CC2)c1` returned an RP-LC retention time of 679 s.

With `CCCc1cc(C2CCCN2C(=O)Cc2ccc(OC)c(OC)c2)no1` (configuration not stated), the RP-LC retention time came out at 760 s.

`O=C(Cn1nc2n(c1=O)CCCC2)NCc1ccccc1` returned an RP-LC retention time of 640 s.

In turn, `CCOCc1nc(C2CCCN(C(=O)C3(c4ccccc4)CC3)C2)no1` (configuration not stated) had an RP-LC retention time of 873 s.

Regarding `Nc1c(C(=O)Nc2nc(-c3ccccc3)cs2)sc2nc3c(cc12)CCCCC3`, the RP-LC retention time stood at 1170 s.

`c1ccc2c(CCNc3nc(N4CCCC4)c4n[nH]nc4n3)c[nH]c2c1` displayed an RP-LC retention time of 621 s.

As for `COc1ccccc1CNC(=O)Cn1c(=O)c2cc(-c3ccco3)nn2c2ncccc21`, the RP-LC retention time worked out at 797 s.

Compound `Cc1nc2c(sc3nc(-c4ccccc4)ccc32)c(=O)n1CC(=O)Nc1ccc(F)cc1` came in with an RP-LC retention time of 1040 s.

In the case of `CC(C(=O)N1CCC(N2CCCCC2)CC1)C1CCN(S(=O)(=O)c2cccs2)CC1` (configuration not stated), the RP-LC retention time stood at 627 s.

The compound `COc1ccccc1C(=O)NCCc1c[nH]c2ccc(F)cc12` gave an RP-LC retention time of 842 s.

In turn, `O=C1Nc2ccc(S(=O)(=O)N3CCN(c4ccccn4)CC3)cc2C1=C1CCCC1` gave an RP-LC retention time of 662 s.

`Cc1ccccc1S(=O)(=O)N1CCC(c2noc(-c3ccccn3)n2)C1` (configuration not stated) showed an RP-LC retention time of 900 s.

For the compound `CCC1CCCCN1C(=O)c1cnc2nc(C)ccc2c1Nc1ccc(C)c(C)c1` (configuration not stated), the RP-LC retention time was found to be 702 s.

Compound `COCc1ncc(C)n1CCNC(=O)Nc1ccsc1C(=O)OC` gave an RP-LC retention time of 615 s.

As to `COCC1CCN(C(=O)C2CCN(c3cnn(Cc4ccccc4)c(=O)c3)CC2)CC1`, the RP-LC retention time was determined as 727 s.

The compound `CCC(C(=O)NCCN(C)C)n1c2ccccc2c2cnn(C)c(=O)c21` (configuration not stated) gave an RP-LC retention time of 618 s.

Consider `CCc1nc2cc(N3CCC(C(=O)NCc4cccs4)CC3)cnc2nc1CC`, for which the RP-LC retention time was 816 s.

Turning to `COCCn1cc2c3c(cccc31)CN(C(=O)Nc1ccc(OC)cc1)CC2`, the RP-LC retention time was found to be 833 s.

In the case of `Oc1ccc([C@@H]2Oc3ccc(O)cc3[C@@H]3CCC[C@@H]32)cc1`, the RP-LC retention time came out at 866 s.

In turn, `O=C(c1ccc(OCC2CCCN(C(=O)c3ccc(F)cc3)C2)cc1)N1CCOCC1` (configuration not stated) came in with an RP-LC retention time of 769 s.

As for `O=C(NC(CO)C(O)c1ccc([N+](=O)[O-])cc1)C(Cl)Cl` (configuration not stated), the RP-LC retention time was 735 s.

Consider `CCCn1cc(CCNC(=O)Nc2ccc(Br)cc2)c2cccnc21`, for which the RP-LC retention time is 835 s.

For the compound `Cc1noc(C)c1S(=O)(=O)NCCn1c(C)cnc1-c1ccncc1`, the RP-LC retention time is 570 s.

As for `COCc1nn(CC2CC2)c2c1CN(C(=O)c1ccc(OC)cc1)CC2`, the RP-LC retention time came to 715 s.

Compound `CCOC(=O)c1cnc2nc(C)ccc2c1Nc1ccc(F)c(Cl)c1` yielded an RP-LC retention time of 764 s.

In the case of `Cc1ccc(NC(=O)Cn2nc3n(c2=O)CCCCC3)cc1F`, the RP-LC retention time is 734 s.

Take `CCN(CC)c1nc(C(=O)N2CCN(C(C)C)CC2)nc2nc(C)cc(C)c12`: the RP-LC retention time was found to be 543 s.

In turn, `O=C(NCc1ccccn1)C(=O)Nc1nccs1` yielded an RP-LC retention time of 527 s.

Take `Cc1ccc(-c2nc3nc4c(c(N5CCN(c6ccccn6)CC5)n3n2)CCC4)cc1`: the RP-LC retention time worked out at 684 s.

For the compound `COc1ccccc1NS(=O)(=O)c1ccc2c(c1)C(=O)N(C)c1ncccc1O2`, the RP-LC retention time came out at 885 s.

Consider `CCn1cc(CCNC(=O)Nc2ccccc2Br)c2cccnc21`, for which the RP-LC retention time was 774 s.

The compound `Cc1ccc(-c2cc3c(N4CCCC(C(=O)NC(C)C)C4)nccn3n2)c(C)c1` (configuration not stated) showed an RP-LC retention time of 828 s.

In turn, `Cc1oc2cc(OCC#N)ccc2c(=O)c1-c1ccc(Cl)cc1` displayed an RP-LC retention time of 926 s.

As for `CC1CCN(C(=O)CN2C(=O)CCCc3cc(S(=O)(=O)N4CCCCCC4)ccc32)CC1`, the RP-LC retention time worked out at 956 s.

`CC(NC(=O)c1c(O)c2sccc2[nH]c1=O)c1ccncc1` (configuration not stated) came in with an RP-LC retention time of 564 s.

For `COc1ccccc1OCc1nc(-c2ccc3ncn(C)c3c2)no1`, the RP-LC retention time was 693 s.

On to `Cc1ccc2c(Nc3cccc(C#N)c3)c(C(=O)N3CCCC3)cnc2n1`, for which the RP-LC retention time was found to be 579 s.

Turning to `Cc1ccc(C)c(NC(=O)C2CCN(S(=O)(=O)c3cc(C(=O)N4CCCC4)n(C)c3)CC2)c1`, the RP-LC retention time stood at 747 s.

`CC(C)OCCCNC(=O)C1CC(=O)N(c2n[nH]c3cc(Br)ccc23)C1` (configuration not stated): the RP-LC retention time stood at 690 s.

The compound `Cc1nc2cccnc2n1CCN1CCN(C(=O)Nc2cccc(Br)c2)CC1` came in with an RP-LC retention time of 607 s.

Take `Cc1ccccc1-c1nc(-c2ccc3c(c2)nnn3C)no1`: the RP-LC retention time amounted to 1050 s.

On to `Cn1cnnc1SCCNC(=O)c1cc(-c2ccc(F)cc2)c[nH]1`, for which the RP-LC retention time worked out at 659 s.

Compound `c1ccc(CCNc2nc(-c3ccccc3)no2)cc1` displayed an RP-LC retention time of 1000 s.

Take `CCCCN1C(=O)C(C)(C(=O)Nc2ccccc2)Oc2cccnc21` (configuration not stated): the RP-LC retention time was found to be 999 s.

For the compound `Cn1c(=O)n(CC(=O)N2CCCC2)c(=O)c2cnc(-c3ccc(Cl)cc3)nc21`, the RP-LC retention time worked out at 924 s.

For the compound `CC(CCNC(=O)Cn1c2ccccc2c2cnn(C)c(=O)c21)N1CCCC1` (configuration not stated), the RP-LC retention time is 595 s.

For `CN1C2CCC1[C@@H](COC(=O)c1ccccc1)[C@@H](O)C2` (some centres not stated), the RP-LC retention time came to 636 s.

`c1ccc(CCc2nnc3sc(-c4ccc5ccccc5n4)nn23)cc1` came in with an RP-LC retention time of 1180 s.

`c1csc(-c2nc(-c3ccnc(N4CCCC4)c3)no2)c1` had an RP-LC retention time of 665 s.

In the case of `CC1CCN(C(=O)C2CCc3sc(C(=O)N4CCCC4)cc3C2)CC1` (configuration not stated), the RP-LC retention time came to 843 s.

Consider `CC(C)n1c(=O)sc2cc(S(=O)(=O)N3CCC(C(=O)NCCc4cccs4)CC3)ccc21`, for which the RP-LC retention time came out at 910 s.

Consider `CCOC(=O)c1nc(Nc2ccc(C)cc2C)c2ccccc2n1`, for which the RP-LC retention time was found to be 831 s.

Compound `Cc1cc2[nH]c(C(=O)Nc3ccc(F)cc3)c(CN3CCOCC3)c2s1` gave an RP-LC retention time of 666 s.

`CNC(=O)c1cc(=O)[nH]c2ccc(F)cc12` returned an RP-LC retention time of 584 s.

In turn, `Cc1noc(C)c1C1CCCN1C(=O)c1cccc(C#N)c1` (configuration not stated) came in with an RP-LC retention time of 767 s.

`CC(C)CN(CC1CCCO1)C(=O)CN1CC2=C(C1=O)C(c1ccccc1Cl)NC(=O)N2C` (configuration not stated) showed an RP-LC retention time of 999 s.

`Cc1c(Cl)cccc1NC(=O)Cn1c(=O)n(-c2ccccc2)c(=O)c2c1cc(C)n2C` showed an RP-LC retention time of 927 s.

`COC(C)C(O)(C(=O)OCC1=CCN2CC[C@H](O)[C@@H]12)C(C)C` (some centres not stated): the RP-LC retention time turned out to be 644 s.

For the compound `Cc1ccc(N2CCC(NC(=O)Nc3ccccc3C)C2=O)cc1` (configuration not stated), the RP-LC retention time amounted to 823 s.

In turn, `CC(C)CNC(=O)c1ccc(CN2CCN(Cc3ccccc3)C(=O)C2=O)cc1` gave an RP-LC retention time of 721 s.

In turn, `COc1ncccc1C(=O)Nc1ccc2c(c1)CCC(=O)N2` came in with an RP-LC retention time of 641 s.

Compound `Cc1cccc(N(C)C(=O)Cn2c(=O)n(-c3cccc(C)c3)c(=O)c3c2cc(C)n3C)c1` had an RP-LC retention time of 752 s.

Compound `CN(C)C[C@@H]1CN(C2CCOCC2)C[C@H]1NS(=O)(=O)c1ccc(C#N)cc1` showed an RP-LC retention time of 524 s.

`Cc1nc2cccnc2n1C1CCN(C(=O)Nc2ccc(F)cc2F)CC1` had an RP-LC retention time of 619 s.

`CCn1nccc1C(=O)NC1CCCCC1` gave an RP-LC retention time of 718 s.

`Cc1cc(OCC(=O)NCc2cccs2)nc(-c2ccc(F)cc2)n1` had an RP-LC retention time of 885 s.

Take `Cc1cn(C)c(CC(=O)NCCN2CCCCC2)c1C(=O)O`: the RP-LC retention time came out at 578 s.

In turn, `CCc1noc(-c2ccnc(-n3ncc(C(=O)NCC4CC4)c3C)c2)n1` yielded an RP-LC retention time of 1110 s.

The compound `Cc1cc(C2CCCN2C(=O)Cc2c(F)cccc2Cl)no1` (configuration not stated) gave an RP-LC retention time of 829 s.

For the compound `O=C(CN1C(=O)CCCc2cc(S(=O)(=O)N3CCCCCC3)ccc21)NC1CCCCC1`, the RP-LC retention time worked out at 987 s.

For `CC(=O)c1cccc(NC(=O)CN(C)c2nc3c(F)cccc3s2)c1`, the RP-LC retention time turned out to be 798 s.

As to `CCOC(=O)c1noc2ncnc(NCc3ccc(C)cc3)c12`, the RP-LC retention time came to 936 s.

`Cc1c(Cl)cccc1Nc1ncccc1C(=O)O` gave an RP-LC retention time of 841 s.

`Cc1ccc2ncn(C3CCN(S(=O)(=O)c4ccc(F)cc4F)CC3)c(=O)c2c1` displayed an RP-LC retention time of 904 s.

Consider `O=C(Nc1ccccc1Cl)N1CCC(N2CCN(Cc3ccccc3)C(=O)C2=O)CC1`, for which the RP-LC retention time worked out at 867 s.

`Cc1ccsc1CN1CC(Oc2ccccc2C(=O)NC2CC2)C1` registered an RP-LC retention time of 615 s.

In turn, `CC(=O)N1CCc2cc(N3CC(C(=O)Nc4cc(C)ccc4F)CC3=O)ccc21` (configuration not stated) came in with an RP-LC retention time of 743 s.

`CCn1c(=O)c(C)nc2cc(-c3noc(Cc4ccc(OC)c(OC)c4)n3)ccc21` displayed an RP-LC retention time of 888 s.
